Earlier results in patent US6586417B1, “Ester and ether derivatives of 4-hydroxy 4-androstene-3,17-dione and a method for the regulation of athletic function in humans” (NutriSport Pharmacal, Inc., priority 2002, dated 2003).

Assays:
[1] = tested on: transformation of testosterone to dihydrotestosterone in the ventral prostrate; conditions: ventral prostrate of the adult male rat
rat follicles = rat follicles in vitro
rats = conditions: for weight of the genital organs (testis, ventral prostrate, seminal vesicle) / luteinizing hormone (LH) levels: rats, subcutaneous treatment; for luteinizing hormone (LH) levels: 4-acetoxy-4-androstenedione given against effects of 19-hydroxytestosterone
aromatase enzyme = biological target: T1, aromatase enzyme (Homo sapiens, UniProt P11511); conditions: at 24 and 48 weeks
T1 construct: host or cells: endogenous enzyme in treated males (in vivo)
T1 sequence (P11511 1-503): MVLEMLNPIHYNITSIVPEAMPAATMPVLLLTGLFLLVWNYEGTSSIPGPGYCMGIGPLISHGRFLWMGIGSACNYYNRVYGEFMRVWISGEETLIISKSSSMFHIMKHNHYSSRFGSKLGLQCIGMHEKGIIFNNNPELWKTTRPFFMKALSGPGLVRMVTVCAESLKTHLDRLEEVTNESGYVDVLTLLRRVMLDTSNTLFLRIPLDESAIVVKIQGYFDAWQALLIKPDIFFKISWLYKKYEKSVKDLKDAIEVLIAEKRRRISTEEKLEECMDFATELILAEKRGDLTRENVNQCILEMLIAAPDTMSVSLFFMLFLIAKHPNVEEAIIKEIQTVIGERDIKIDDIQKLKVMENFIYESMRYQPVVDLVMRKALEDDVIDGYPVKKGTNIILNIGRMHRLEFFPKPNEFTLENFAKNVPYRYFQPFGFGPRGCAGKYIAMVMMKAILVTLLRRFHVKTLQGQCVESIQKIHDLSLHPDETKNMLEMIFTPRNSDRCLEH

C[C@]12CCC(=O)C(O)=C1CC[C@@H]1[C@@H]2CC[C@]2(C)C(=O)CC[C@@H]12 [4-hydroxy 4-androstenedione, 4-hydroxy 4-androstene-3, 17-dione]
escape from estrogen suppression (estrogen; 500 mg p.o. daily versus single i.m. injection of 125 mg): more rapid | oral absorption (estrogen; p.o.): adequate oral absorption | inhibition of the transformation of testosterone to dihydrotestosterone [1]: able to inhibit

CC(=O)OC1=C2CC[C@@H]3[C@H](CC[C@]4(C)C(=O)CC[C@@H]34)[C@@]2(C)CCC1=O [4-acetoxy-4-androstenedione]
stimulation of testosterone, in combination with luteinizing hormone (LH) (rat follicles; first eight hours, plus LH): greatly stimulate testosterone | stimulation of testosterone, compound alone (rat follicles; first eight hours, without LH): directly stimulate testosterone alone | stimulation of testosterone relative to luteinizing hormone (LH) (rat follicles; next sixteen hours, compound alone): three times as much as luteinizing hormone (LH) | meiotic activity (rats; rats treated with 19-hydroxytestosterone): restored meiotic activity | weight of the genital organs (testis, ventral prostrate, seminal vesicle) (rats): increased the weight of the genital organs | luteinizing hormone (LH) levels (rats): increased luteinizing hormone (LH) levels | inhibition of the transformation of testosterone to dihydrotestosterone [1]: able to inhibit

C[C@]12CC[C@H]3[C@@H](CCC4=CC(=O)CC[C@@]43CO)[C@@H]1CC[C@@H]2O [19-hydroxytestosterone, reference compound]
weight of the genital organs (testis, ventral prostrate, seminal vesicle) (rats): decrease in weight of the testis, ventral prostrate, seminal vesicle | luteinizing hormone (LH) levels (rats): decrease

CC1=CC(=O)C=C2CC[C@@H]3[C@H](CC[C@]4(C)C(=O)CC[C@@H]34)[C@@]12C [atamestane]
restoration of androgens over estrogens (aromatase enzyme): restoration of androgens over estrogens
